Reference: patent US8017791B2, “Tri-substituted 2-benzhydryl-5-benzylamino-tetrahydro-pyran-4-ol and 6-benzhydryl-4-benzylamino-tetrahydro-pyran-3-ol analogues, and novel, 3,6-disubstituted pyran derivatives” (Wayne State University, priority 2003, dated 2011)
Entries after “also recorded” stand apart in the source; their conditions may differ. Where two headings read alike, the source gives them in different places.

Tests used:
[1] = target: T1, DAT (Rattus norvegicus, UniProt P23977); assay: Inhibition of [3H]WIN 35,428 binding to DAT
T1 construct: rat striatum was the source for DAT, and cerebral cortex for SERT and NET; from tissue; P2 synaptosomal fraction for uptake
Procedure: (§1) Biology. […] Briefly, rat striatum was the source for DAT, and cerebral cortex for SERT and NET. […] Test compounds were dissolved in dimethyl sulfoxide (DMSO) and diluted out in 10% (v/v) DMSO. […] At least five triplicate concentrations of each test compound were studied, spaced evenly around the IC50 value. For DAT uptake assays, uptake of 50 nM [^3H]DA into rat striatal synaptosomes was measured exactly as described by us previously. Briefly, rat striatal P2 membrane fractions were incubated with test compounds for 8 min followed by the additional presence of [^3H]DA for 4 min at 25?. […] Construction of inhibition curves and dissolvement of test compounds were as described above.

[2] = target: T2, SERT (Rattus norvegicus, UniProt P31652); assay: Inhibition of [3H]citalopram binding to SERT; details: for SERT binding/DAT binding: Table 3, selectivity ratio of IC50 values
T2 construct: rat striatum was the source for DAT, and cerebral cortex for SERT and NET; from tissue; host or cells: rat cerebral cortex
Procedure: as §1

[3] = target: NET (Rattus norvegicus, UniProt Q9WTR4); assay: Inhibition of [3H]nisoxetine binding to NET
Procedure: as §1

[4] = system: NET; assay: Inhibition of [3H]nisoxetine binding to NET; design: species or system rat; details: Table 3; selectivity ratio of IC50 values
Procedure: as §1

[5] = target: T1, DAT; assay: Inhibition of [3H]DA uptake by DAT into rat striatal synaptosomes; format: biochemical; details: for [3H]DA uptake/DAT binding: Table 3, ratio of IC50 values
Procedure: as §1

[6] = target: T2, SERT; assay: SERT uptake inhibition, [3H]5-HT; format: biochemical; details: for blockade of both SERT and NET (SNRI profile), in words: in vitro data
[7] = target: T3, NET (Rattus norvegicus); assay: NET uptake inhibition, [3H]NE; format: biochemical; details: Table 4; rat brain
T3 construct: from tissue

[8] = Table 1, rat striatum, read-out: Inhibition of [3H]Win 35,428 binding to DAT IC50
[9] = Table 2, average ± SEM of three to eight experiments, read-out: DAT binding, IC50, [3H]Win 35,428
[10] = Table 1, read-out: Inhibition of [3H]citalopram binding to SERT, IC50
[11] = Table 2, average ± SEM, read-out: SERT binding, IC50 [3H]citalopram
[12] = Table 1, read-out: Inhibition of [3H]nisoxetine binding to NET, IC50
[13] = Table 2, average ± SEM, read-out: NET binding, IC50 [3H]nisoxetine
[14] = Table 2, average ± SEM, read-out: DAT uptake, IC50 [3H]DA
[15] = Table 4, rat brain, read-out: DAT binding, IC50, [3H]Win 35,428
[16] = Table 4, rat brain, read-out: DAT uptake, IC50 [3H]DA
[17] = Table 4, rat brain, read-out: SERT uptake, IC50 [3H]5-HT

T2 sequence (P31652 whole entry): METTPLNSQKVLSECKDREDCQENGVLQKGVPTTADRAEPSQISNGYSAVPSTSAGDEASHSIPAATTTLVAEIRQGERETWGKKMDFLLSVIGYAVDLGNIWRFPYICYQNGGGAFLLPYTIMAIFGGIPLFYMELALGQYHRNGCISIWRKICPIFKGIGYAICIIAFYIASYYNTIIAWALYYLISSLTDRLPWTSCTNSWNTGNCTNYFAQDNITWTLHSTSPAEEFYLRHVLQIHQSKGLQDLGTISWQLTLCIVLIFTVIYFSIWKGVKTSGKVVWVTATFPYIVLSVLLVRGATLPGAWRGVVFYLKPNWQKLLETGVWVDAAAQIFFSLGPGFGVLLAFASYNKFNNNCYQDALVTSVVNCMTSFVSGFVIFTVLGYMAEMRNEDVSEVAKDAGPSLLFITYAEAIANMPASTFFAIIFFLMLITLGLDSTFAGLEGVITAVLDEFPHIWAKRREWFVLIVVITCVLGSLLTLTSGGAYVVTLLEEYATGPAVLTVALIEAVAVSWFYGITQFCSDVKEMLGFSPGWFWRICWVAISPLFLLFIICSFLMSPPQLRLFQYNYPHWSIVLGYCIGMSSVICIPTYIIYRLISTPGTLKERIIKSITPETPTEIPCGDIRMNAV
T1 sequence (P23977 whole entry): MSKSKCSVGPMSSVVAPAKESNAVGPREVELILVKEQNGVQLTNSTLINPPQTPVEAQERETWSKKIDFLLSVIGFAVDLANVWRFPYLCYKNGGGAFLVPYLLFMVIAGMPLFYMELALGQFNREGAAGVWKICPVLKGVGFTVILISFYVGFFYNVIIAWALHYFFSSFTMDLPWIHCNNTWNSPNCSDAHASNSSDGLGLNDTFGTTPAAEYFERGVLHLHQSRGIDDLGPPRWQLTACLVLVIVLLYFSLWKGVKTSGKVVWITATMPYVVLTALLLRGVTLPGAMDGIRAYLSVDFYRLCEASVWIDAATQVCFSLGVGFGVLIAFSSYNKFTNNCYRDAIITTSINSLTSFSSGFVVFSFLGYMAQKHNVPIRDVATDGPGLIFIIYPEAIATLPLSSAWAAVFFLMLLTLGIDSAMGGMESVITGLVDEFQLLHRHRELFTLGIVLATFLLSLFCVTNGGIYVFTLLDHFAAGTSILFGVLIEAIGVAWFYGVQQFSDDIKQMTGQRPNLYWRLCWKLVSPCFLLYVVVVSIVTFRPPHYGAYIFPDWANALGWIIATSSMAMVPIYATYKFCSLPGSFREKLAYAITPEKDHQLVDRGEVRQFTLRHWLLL
T3 sequence (Q63380 1-617): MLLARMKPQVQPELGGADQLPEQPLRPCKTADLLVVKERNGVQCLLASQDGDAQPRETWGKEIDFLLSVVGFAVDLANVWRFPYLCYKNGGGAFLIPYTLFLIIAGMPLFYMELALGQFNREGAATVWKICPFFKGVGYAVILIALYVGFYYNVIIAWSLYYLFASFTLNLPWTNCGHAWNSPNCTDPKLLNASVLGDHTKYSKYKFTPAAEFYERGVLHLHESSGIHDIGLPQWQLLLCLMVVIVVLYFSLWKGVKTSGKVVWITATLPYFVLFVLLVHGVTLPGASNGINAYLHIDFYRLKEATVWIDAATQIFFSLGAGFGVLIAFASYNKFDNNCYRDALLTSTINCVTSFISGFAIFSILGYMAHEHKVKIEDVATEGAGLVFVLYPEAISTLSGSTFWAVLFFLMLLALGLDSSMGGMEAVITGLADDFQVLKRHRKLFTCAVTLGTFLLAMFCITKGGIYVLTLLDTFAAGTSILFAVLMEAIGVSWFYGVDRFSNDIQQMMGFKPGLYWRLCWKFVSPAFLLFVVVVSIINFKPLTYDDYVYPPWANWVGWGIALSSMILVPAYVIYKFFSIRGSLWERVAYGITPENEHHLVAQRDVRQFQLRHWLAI

SMILES: Fc1ccc(CN[C@H]2CCO[C@@H](C(c3ccccc3)c3ccccc3)C2)cc1 (relative stereo) [Compound 7a, cis-(2-benzhydryl-tetrahydropyran 4-yl)-(4-fluorobenzyl)-amine]
- activity at DAT, in words [1]: much weaker at DAT
- IC50 [1, 8]: 1300 nM
- IC50 [1, 9]: 1300 nM
- IC50 [2, 10]: 3310 nM
- IC50 [2, 11]: 3310 nM
- SERT binding/DAT binding [2]: 2.5
- IC50 [3, 12]: 5100 nM
- IC50 [3, 13]: 5100 nM
- NET binding/DAT binding [4]: 3.9

SMILES: Fc1ccc(CN[C@@H]2CCO[C@@H](C(c3ccccc3)c3ccccc3)C2)cc1 (relative stereo) [Compound 7b, trans-(2-benzhydryl-tetrahydropyran-4-yl)-(4-fluoro-benzyl)-amine]
- activity at DAT, in words [1]: much weaker at DAT
- IC50 [1, 8]: 1580 nM
- IC50 [1, 9]: 1580 nM
- IC50 [2, 10]: 4780 nM
- IC50 [2, 11]: 4780 nM
- SERT binding/DAT binding [2]: 3
- IC50 [3, 12]: 17500 nM
- IC50 [3, 13]: 17500 nM
- NET binding/DAT binding [4]: 11.1

SMILES: N#Cc1ccc(CN[C@H]2CC[C@@H](C(c3ccccc3)c3ccccc3)OC2)cc1 (relative stereo) [Compound 16c, Cis-(6-benzhydryl-tetrahydropyran-3-yl)-(4-cyano-benzyl)-amine]
- IC50 [2, 11]: 863 ± 52 nM
- IC50 [3, 13]: 1580 nM
- [3H]DA uptake/DAT binding [5]: 1.1

SMILES: Oc1ccc(CN[C@H]2CC[C@@H](C(c3ccccc3)c3ccccc3)OC2)cc1 (relative stereo) [Compound 16h, Cis-(6-benzhydryl-tetrahydropyran-3-yl)-(4-hydroxy-benzyl)-amine]
- IC50 ([1]; read-out: IC50 at the DAT): 78.4 nM
- IC50 [2, 11]: 398 ± 22 nM
- potency at NET, in words [3]: high potency for the NET

SMILES: Clc1ccc(CN[C@H]2CC[C@@H](C(c3ccccc3)c3ccccc3)OC2)cc1Cl (relative stereo) [Compound 16i, Cis-(6-benzhydryl-tetrahydropyran-3-yl)-(3,4-dichloro-benzyl)-amine]
- IC50 [1, 9]: 400 ± 31 nM
- IC50 [2, 11]: 780 ± 84 nM
- SERT binding/DAT binding [2]: 1.9
- IC50 [3, 13]: 144 ± 25 nM
- NET binding/DAT binding [4]: 0.36
- IC50 [5, 14]: 880 ± 136 nM

SMILES: Fc1ccc(CN[C@H]2CC[C@@H](C(c3ccccc3)c3ccccc3)OC2)cc1F (relative stereo) [Compound 16j, Cis-(6-benzhydryl-tetrahydropyran-3-yl)-(3,4-difluoro-benzyl)-amine]
- IC50 [1, 9]: 368 ± 85 nM
- IC50 [2, 11]: 3520 nM
- SERT binding/DAT binding [2]: 9.6
- IC50 [3, 13]: 695 ± 142 nM
- NET binding/DAT binding [4]: 1.9

SMILES: c1ccc(CN[C@H]2CC[C@@H](C(c3ccccc3)c3ccccc3)OC2)cc1 (relative stereo) [Compound 16k, Cis-(6-benzhydryl-tetrahydropyran-3-yl)-benzyl-amine]
- IC50 [1, 8]: 303 ± 14 nM
- IC50 [1, 9]: 303 ± 14 nM
- IC50 [2, 10]: 1580 ± 97 nM
- IC50 [2, 11]: 1580 ± 97 nM
- SERT binding/DAT binding [2]: 5.20
- IC50 [3, 12]: 274 ± 29 nM
- IC50 [3, 13]: 274 ± 29 nM
- NET binding/DAT binding [4]: 0.90
- IC50 ([5]; Table 1, read-out: Inhibition of [3H]DA uptake by DAT, IC50): 242 ± 39 nM
- IC50 [5, 14]: 242 ± 39 nM
- [3H]DA uptake/DAT binding [5]: 0.79

SMILES: Brc1ccc(CN[C@H]2CC[C@@H](C(c3ccccc3)c3ccccc3)OC2)cc1 (relative stereo) [Compound 16l, Cis-(6-benzhydryl-tetrahydropyran-3-yl)-(4-bromo-benzyl)-amine]
- IC50 [1, 9]: 202 ± 13 nM
- IC50 [2, 11]: 2360 ± 92 nM
- SERT binding/DAT binding [2]: 11.69
- IC50 [3, 13]: 592 ± 12 nM
- NET binding/DAT binding [4]: 2.93
- IC50 [5, 14]: 251 ± 14 nM
- [3H]DA uptake/DAT binding [5]: 1.24

SMILES: Ic1ccc(CN[C@H]2CC[C@@H](C(c3ccccc3)c3ccccc3)OC2)cc1 (relative stereo) [Compound 16m, Cis-(6-benzhydryl-tetrahydropyran-3-yl)-(4-iodo-benzyl)-amine]
- IC50 [1, 9]: 319 ± 21 nM
- IC50 [2, 11]: 2480 ± 145 nM
- SERT binding/DAT binding [2]: 7.76
- IC50 [3, 13]: 234 ± 17 nM
- NET binding/DAT binding [4]: 0.73
- IC50 [5, 14]: 500 ± 34 nM
- [3H]DA uptake/DAT binding [5]: 1.56

SMILES: c1ccc(C(c2ccccc2)[C@@H]2CC[C@H](NCc3ccc4[nH]ccc4c3)CO2)cc1 (relative stereo) [Compound 16n, Cis-(6-benzhydryl-tetrahydropyran-3-yl)-(1H-iodo-5-ylmethyl)-amine]
- IC50 ([1]; read-out: DAT binding, IC50, [3H]Win 35,428): 587 ± 66 nM
- IC50 [2, 11]: 325 ± 20 nM
- SERT binding/DAT binding [2]: 0.55
- potency at NET, in words [3]: high affinity; also recorded: strong selective potency at NET
- IC50 [3, 13]: 56 ± 6 nM
- NET binding/DAT binding [4]: 0.09

SMILES: Nc1ccc(CN[C@H]2CC[C@@H](C(c3ccccc3)c3ccccc3)OC2)cc1 (relative stereo) [Compound 16o, Cis-(6-benzhydryl-tetrahydropyran-3-yl)-(4-amino-benzyl)-amine]
- potency at NET, in words [3]: high potency at NET; also recorded: high potency for the NET
- [3H]DA uptake/DAT binding [5]: 1.02

SMILES: Fc1ccc(CCN[C@H]2CC[C@@H](C(c3ccccc3)c3ccccc3)OC2)cc1 (relative stereo) [Compound 16p, Cis-(6-benzhydryl-tetrahydropyran-3-yl)-[2-(4-fluoro-phenyl)-ethyl]-amine]
- IC50 [1, 9]: 129 ± 58 nM
- IC50 [2, 11]: 3950 nM
- SERT binding/DAT binding [2]: 30.6
- IC50 [3, 13]: 5210 nM
- NET binding/DAT binding [4]: 40.4

SMILES: O[C@H]1C[C@H](C(c2ccccc2)c2ccccc2)OC[C@@H]1NCc1ccc(F)cc1 [(+)-29b, (2R,4S,5S)-2-benzhydryl-5-(4-fluoro-benzylamino)-tetrahydro-pyran-4-ol]
- IC50 [1]: 1030 ± 120 nM
- IC50 [5]: 440 ± 30 nM
- IC50 [6]: 5560 ± 640 nM
- IC50 [7]: 1130 ± 580 nM

SMILES: O[C@H]1C[C@H](C(c2ccccc2)c2ccccc2)OC[C@@H]1NCCc1ccc(F)cc1 [(+)-29c, (2R,4S,5S)-2-benzhydryl-5-[2-(4-fluoro-phenyl)-ethylamino]-tetrahydropyran-4-ol]
- IC50 [1, 15]: 443 ± 52 nM
- IC50 [5, 16]: 218 ± 20 nM
- IC50 [6, 17]: 2950 ± 380 nM
- IC50 [7]: 77.3 ± 3 nM

SMILES: O[C@H]1C[C@H](C(c2ccccc2)c2ccccc2)OC[C@@H]1NCc1ccccc1 [(+)-29d, (2R,4S,5S)-2-benzhydryl-5-benzylamino-tetrahydro-pyran-4-ol]
- IC50 [1, 15]: 596 ± 84 nM
- IC50 [5, 16]: 341 ± 43 nM
- IC50 [6, 17]: 6120 ± 730 nM

SMILES: Oc1ccc(CN[C@@H]2CC[C@H](C(c3ccccc3)c3ccccc3)OC2)cc1 [(+)-37a, cis-(3R,6R)-(6-benzhydryl-tetrahydropyran-3-yl)-(4-hydroxy-benzyl)-amine]
- IC50 [1, 15]: 141 ± 2.2 nM
- IC50 [5, 16]: 90.7 ± 4 nM
- IC50 [6, 17]: 209 ± 25 nM

SMILES: O[C@@H]1C[C@@H](C(c2ccccc2)c2ccccc2)OC[C@H]1NCc1ccccc1 [(−)-29d, (2S,4R,5R)-2-benzhydryl-5-benzylamino-tetrahydro-pyran 4-ol]
- IC50 [5, 16]: 600 ± 79 nM
- IC50 [6, 17]: 862 ± 36 nM

SMILES: O[C@@H]1C[C@@H](C(c2ccccc2)c2ccccc2)OC[C@H]1NCc1ccc2[nH]ccc2c1 [(−)-32b, (2S,4R,5R)-2-benzhydryl-5-[(1H-indol-5-ylmethyl)-amino]-tetrahydropyran-4-ol]
- IC50 [1, 15]: 705 ± 176 nM
- IC50 [5, 16]: 162 ± 11 nM
- blockade of both SERT and NET (SNRI profile), in words ([6]; Table 4): potent blockers for both SERT and NET
- blockade of both SERT and NET (SNRI profile), in words ([6]; Table 4, listed as (−)32b): dual transport blockers

SMILES: Oc1ccc(CN[C@H]2CC[C@@H](C(c3ccccc3)c3ccccc3)OC2)cc1 [(−)-37a, cis-(3S,6S)-(6-benzhydryl-tetrahydropyran-3-yl)-(4-hydroxy-benzyl)-amine]
- IC50 [1, 15]: 280 ± 8 nM
- IC50 [5, 16]: 114 ± 8 nM
- IC50 [6, 17]: 42 ± 3 nM
- blockade of both SERT and NET (SNRI profile), in words ([6]; Table 4): potent blockers for both SERT and NET
- blockade of both SERT and NET (SNRI profile), in words ([6]; Table 4, listed as (−)37a): dual transport blockers

SMILES: c1ccc(CN[C@H]2CC[C@@H](C(c3ccccc3)c3ccccc3)NC2)cc1 [Compound 1a, reference compound]
- IC50 ([3]; read-out: Inhibition of [3H]nisoxetine binding to NET, IC50): 612 ± 130 nM

SMILES: c1ccc(C(c2ccccc2)C2CCC(NCc3c[nH]c4ccccc34)CO2)cc1 (stereo not drawn) [Compound 16f, Cis-(6-benzhydryl-tetrahydropyran-3-yl)-(3-indole-methyl)-amine]
- IC50 ([1]; read-out: IC50 at the DAT): 794 nM
- IC50 [2, 11]: 2590 nM
- SERT binding/DAT binding [2]: 3.3
- IC50 ([3]; read-out: IC50 for the NET): 1860 nM
- NET binding/DAT binding [4]: 2.3

SMILES: c1ccc(C(c2ccccc2)C2CCC(NCc3cc4ccccc4[nH]3)CO2)cc1 (stereo not drawn) [Compound 16g, Cis-(6-benzhydryl-tetrahydropyran-3-yl)-(2-indole-methyl)-amine]
- fold more active at DAT compared to the 3-substituted 16f [1]: 3.5 fold
- IC50 ([1]; read-out: IC50 at the DAT): 227 nM
- IC50 [2, 11]: 1640 nM
- SERT binding/DAT binding [2]: 7.2
- IC50 ([3]; read-out: IC50 for the NET): 401 nM
- NET binding/DAT binding [4]: 1.8
- IC50 [5, 14]: 135 ± 47.5 nM
- [3H]DA uptake/DAT binding [5]: 0.60
